Assay results: PMC6591251, “Discovery of potent necroptosis inhibitors targeting RIPK1 kinase activity for the treatment of inflammatory disorder and cancer metastasis” (Cell Death & Disease, 2019)
Read-outs that look alike come from different tables or passages of the source.

How the values were obtained:
[1] = test system: mouse embryonic fibroblasts (MEFs); assay: TNF-induced necroptosis (T/S/Z), cell viability by ATP levels; assay type: cell-based; details: Fibroblast, 24 h, MEF, T/S/Z 24 h
U937 cells = assay: as above; assay type: cell-based; details: Homo sapiens, U-937, 24 h, T/S/Z 24 h
[2] = Pharmacokinetic profile in mice; assay type: in vivo; details: ICR, mouse, plasma; for AUC(0-t): read-out: AUC0-24
Description: Encouraged by our overall satisfactory in vitro potency and selectivity data for PK68, we decided to assess its in vivo pharmacokinetic profile.
Data represent mean value ± standard deviation. b Plasma pharmacokinetic parameters of PO and IV. c, d C57BL/6 mice (n = 5) were treated with the indicated daily oral gavage dosing of PK68 for successive 14 days. Body weight (c) and hematoxylin-eosin (H&E) staining (d) of mice were analyzed. Control mice received an equal amount of vehicle. Magnification: ×40. Data represent mean value ± standard deviation TEXT PRINTED IN THE PICTURE: (b) no label printed: Tmax (hr): 0.5 (PO (Gavage)); Cmax (ng/mL): 2423 (PO (Gavage)); AUC0-24 (ng/mL*hr): 4821 (PO (Gavage)); AUC0-24 (ng/mL*hr): 1588 (IV (Bolus)); AUCINF (ng/mL*hr): 4897 (PO (Gavage)); AUCINF (ng/mL*hr): 1590 (IV (Bolus)); t1/2 (hr): 1.3 (PO (Gavage)); t1/2 (hr): 1.0 (IV (Bolus)); MRT (hr): 1.8 (PO (Gavage)); MRT (hr): 0.8 (IV (Bolus)); CL (mL/hr/kg): 1258 (IV (Bolus)); CL (mL/min/kg): 21 (IV (Bolus)); Vss (mL/kg): 1009 (IV (Bolus)); Vss (L/kg): 1.0 (IV (Bolus)); F(%): 61 (PO (Gavage)) DOUBTS OF THE COPYIST ABOUT THIS PICTURE: Panel b prints no substance label with the PK table. The name PK68 is printed only in panels c and d, so the label is left empty.
Judging by the PK time curve, the observed plasma levels of PK68 were above its EC50 over a period of 8 h. […] These doses were meant to determine the preliminary toxicity effects of PK68 (Fig. 6c). […] We further performed histology of various tissues from mice that had received 14-day treatment of PK68.

ITK = target: T1, ITK (Homo sapiens, UniProt Q08881); assay: RBC kinase panel; assay type: biochemical; details: ATP 10 μM, Data1, Data2
T1 construct: purchased Reaction Biology Corporation
Description: (§1) PK68 was tested at 1 μM in duplicate against a panel of 369 human kinases at Reaction Biology Corporation. Results are viewed in the human kinome phylogenetic tree.
(§2) ^a Compound PK68 was tested at 1 μM in duplicate against 369 kinases using the RBC kinase panel service of Reaction Biology Corporation. All the ATP concentrations used were 10 μM. […] Full protocol details are available at http://www.reactionbiology.com.

MEK5 = target: T2, MEK5 (Homo sapiens, UniProt Q13163); assay: RBC kinase panel; assay type: biochemical; details: ATP 10 μM, Data1, Data2
T2 construct: purchased Reaction Biology Corporation
Description: as §1, §2

PKCepsilon = target: T3, PKCepsilon (Homo sapiens, UniProt Q02156); assay: RBC kinase panel; assay type: biochemical; details: ATP 10 μM, Data1, Data2
T3 construct: purchased Reaction Biology Corporation
Description: as §1, §2

MKK4 = target: T4, MKK4 (Homo sapiens, UniProt P45985); assay: RBC kinase panel; assay type: biochemical; details: ATP 10 μM, Data1, Data2
T4 construct: purchased Reaction Biology Corporation
Description: as §1, §2

CHK1 = target: T5, CHK1 (Homo sapiens, UniProt O14757); assay: RBC kinase panel; assay type: biochemical; details: ATP 10 μM, Data1, Data2
T5 construct: purchased Reaction Biology Corporation
Description: as §1, §2

PYK2 = target: T6, PYK2 (Homo sapiens, UniProt Q14289); assay: RBC kinase panel; assay type: biochemical; details: ATP 10 μM, Data1, Data2
T6 construct: purchased Reaction Biology Corporation
Description: as §1, §2

SIK3 = target: T7, SIK3 (Homo sapiens, UniProt Q9Y2K2); assay: RBC kinase panel; assay type: biochemical; details: ATP 10 μM, Data1, Data2
T7 construct: purchased Reaction Biology Corporation
Description: as §1, §2

CDK2/cyclin E = target: T8, CDK2/cyclin E (Homo sapiens, UniProt P24941); assay: RBC kinase panel; assay type: biochemical; details: ATP 10 μM, Data1, Data2
T8 construct: purchased Reaction Biology Corporation
Description: as §1, §2

ERBB2/HER2 = target: T9, ERBB2/HER2 (Homo sapiens, UniProt P04626); assay: RBC kinase panel; assay type: biochemical; details: ATP 10 μM, Data1, Data2
T9 construct: purchased Reaction Biology Corporation
Description: as §1, §2

YES/YES1 = target: T10, YES/YES1 (Homo sapiens, UniProt P07947); assay: RBC kinase panel; assay type: biochemical; details: ATP 10 μM, Data1, Data2
T10 construct: purchased Reaction Biology Corporation
Description: as §1, §2

IRAK1 = target: T11, IRAK1 (Homo sapiens, UniProt P51617); assay: RBC kinase panel; assay type: biochemical; details: ATP 10 μM, Data1, Data2
T11 construct: purchased Reaction Biology Corporation
Description: as §1, §2

STK39/STLK3 = target: T12, STK39/STLK3 (Homo sapiens, UniProt Q9UEW8); assay: RBC kinase panel; assay type: biochemical; details: ATP 10 μM, Data1, Data2
T12 construct: purchased Reaction Biology Corporation
Description: as §1, §2

TRKA = TRKA (Homo sapiens, UniProt P04629); assay: Kinase activity assay at a CRO; assay type: biochemical; details: CRO company
Description: (§3) Further, we evaluated the selectivity of PK68 against a panel of 369 kinases provided by Reaction Biology (at 1000 nM). […] In addition, we followed on some of the active “hits” from the kinome scan. PK68 was tested against TNIK and TRKA by a reputable CRO company. […] RIPK1 is known to mediate NF-κB activation independently of its kinase activity. […] It has been shown that homodimerization of RIPK3 or MLKL induced by the dimerizer leads to necroptosis bypassing the upstream signals[10],[37]. […] This dimerized RIPK3-induced necroptosis was blocked by RIPK3 inhibitor GSK873 but was not blocked by the RIPK1 inhibitor necrostatin-1. […] (Fig. 4e).
(§4) Supplementary Figure 20. The kinase activity assays of PK68 in TNIK and TRKA in vitro, Staurosporine as control.
(§5) (A) The IC50 values were obtained by increasing concentrations of PK68 and Staurosporine in TNIK. (B) The IC50 values were obtained by increasing concentrations of PK68 and Staurosporine in TRKA.

TNIK = TNIK (Homo sapiens, UniProt Q9UKE5); assay: Kinase activity assay at a CRO; assay type: biochemical; details: CRO company
Description: as §3, §4, §5

T4 sequence (P45985 whole entry): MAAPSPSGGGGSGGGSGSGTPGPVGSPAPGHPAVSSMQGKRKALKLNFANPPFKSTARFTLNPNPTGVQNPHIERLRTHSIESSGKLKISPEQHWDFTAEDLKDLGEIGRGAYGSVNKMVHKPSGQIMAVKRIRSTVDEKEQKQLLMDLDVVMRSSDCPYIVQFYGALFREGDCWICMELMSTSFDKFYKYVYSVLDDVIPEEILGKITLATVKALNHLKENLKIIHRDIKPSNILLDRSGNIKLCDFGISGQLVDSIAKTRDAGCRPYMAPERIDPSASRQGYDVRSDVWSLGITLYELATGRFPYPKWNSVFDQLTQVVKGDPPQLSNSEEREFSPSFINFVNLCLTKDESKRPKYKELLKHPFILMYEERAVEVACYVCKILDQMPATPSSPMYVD
T2 sequence (Q13163 whole entry): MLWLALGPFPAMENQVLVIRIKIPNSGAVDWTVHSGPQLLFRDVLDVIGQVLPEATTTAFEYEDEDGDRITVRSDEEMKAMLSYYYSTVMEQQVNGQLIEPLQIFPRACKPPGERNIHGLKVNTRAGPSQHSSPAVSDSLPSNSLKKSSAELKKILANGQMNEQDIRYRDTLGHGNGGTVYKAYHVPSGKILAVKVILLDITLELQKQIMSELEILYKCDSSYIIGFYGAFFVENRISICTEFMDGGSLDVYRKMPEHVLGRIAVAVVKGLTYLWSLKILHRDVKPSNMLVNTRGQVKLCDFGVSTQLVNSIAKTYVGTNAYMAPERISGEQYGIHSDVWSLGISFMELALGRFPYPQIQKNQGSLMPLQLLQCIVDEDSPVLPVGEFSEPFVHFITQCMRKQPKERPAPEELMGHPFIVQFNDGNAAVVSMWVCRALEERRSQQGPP
T10 sequence (P07947 whole entry): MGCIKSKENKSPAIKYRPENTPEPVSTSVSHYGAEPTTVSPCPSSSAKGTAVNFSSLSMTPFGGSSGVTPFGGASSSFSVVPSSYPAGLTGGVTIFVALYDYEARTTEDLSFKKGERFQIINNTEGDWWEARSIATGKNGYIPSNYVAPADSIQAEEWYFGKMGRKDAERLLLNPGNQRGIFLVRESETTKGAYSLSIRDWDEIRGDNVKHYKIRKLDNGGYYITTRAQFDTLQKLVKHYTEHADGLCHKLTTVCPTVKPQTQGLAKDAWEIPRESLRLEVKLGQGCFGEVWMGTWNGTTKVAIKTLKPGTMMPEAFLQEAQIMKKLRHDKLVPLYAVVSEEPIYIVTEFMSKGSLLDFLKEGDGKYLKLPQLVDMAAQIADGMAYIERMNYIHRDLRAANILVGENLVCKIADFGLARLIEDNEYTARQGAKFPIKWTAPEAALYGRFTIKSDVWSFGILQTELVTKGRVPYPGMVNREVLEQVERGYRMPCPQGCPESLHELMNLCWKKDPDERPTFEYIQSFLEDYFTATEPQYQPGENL
T9 sequence (P04626 23-1255): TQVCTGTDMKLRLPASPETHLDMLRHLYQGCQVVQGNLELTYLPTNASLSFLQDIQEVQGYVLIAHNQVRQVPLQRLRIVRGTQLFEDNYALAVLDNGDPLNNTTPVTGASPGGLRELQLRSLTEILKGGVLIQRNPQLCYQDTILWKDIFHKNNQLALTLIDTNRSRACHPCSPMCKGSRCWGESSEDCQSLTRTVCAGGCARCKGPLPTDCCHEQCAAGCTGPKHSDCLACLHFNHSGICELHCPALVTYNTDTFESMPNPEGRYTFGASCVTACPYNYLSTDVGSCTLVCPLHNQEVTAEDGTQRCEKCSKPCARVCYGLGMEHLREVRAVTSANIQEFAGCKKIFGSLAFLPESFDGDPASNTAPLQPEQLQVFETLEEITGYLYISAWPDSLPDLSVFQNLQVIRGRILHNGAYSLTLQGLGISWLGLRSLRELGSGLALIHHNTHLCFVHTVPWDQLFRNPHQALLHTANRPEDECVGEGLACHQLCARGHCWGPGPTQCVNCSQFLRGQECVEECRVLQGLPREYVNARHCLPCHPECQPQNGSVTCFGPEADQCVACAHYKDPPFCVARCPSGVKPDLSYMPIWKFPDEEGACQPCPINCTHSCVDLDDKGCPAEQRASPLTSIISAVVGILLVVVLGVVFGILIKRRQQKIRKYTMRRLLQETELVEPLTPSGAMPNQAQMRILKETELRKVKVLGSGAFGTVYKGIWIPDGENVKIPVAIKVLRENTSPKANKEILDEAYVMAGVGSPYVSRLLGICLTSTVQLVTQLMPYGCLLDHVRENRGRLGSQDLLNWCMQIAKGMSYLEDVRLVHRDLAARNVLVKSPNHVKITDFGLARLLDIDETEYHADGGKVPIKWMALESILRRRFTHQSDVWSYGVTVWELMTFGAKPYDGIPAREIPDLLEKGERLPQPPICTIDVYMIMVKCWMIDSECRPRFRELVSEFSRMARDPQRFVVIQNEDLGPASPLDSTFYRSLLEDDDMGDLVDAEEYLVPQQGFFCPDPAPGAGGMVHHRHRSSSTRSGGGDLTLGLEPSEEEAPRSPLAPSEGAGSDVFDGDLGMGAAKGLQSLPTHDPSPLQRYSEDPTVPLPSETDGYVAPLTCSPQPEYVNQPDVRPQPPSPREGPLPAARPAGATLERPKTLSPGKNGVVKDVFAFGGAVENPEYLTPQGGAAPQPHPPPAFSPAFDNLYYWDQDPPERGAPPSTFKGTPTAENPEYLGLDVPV
T7 sequence (Q9Y2K2 whole entry): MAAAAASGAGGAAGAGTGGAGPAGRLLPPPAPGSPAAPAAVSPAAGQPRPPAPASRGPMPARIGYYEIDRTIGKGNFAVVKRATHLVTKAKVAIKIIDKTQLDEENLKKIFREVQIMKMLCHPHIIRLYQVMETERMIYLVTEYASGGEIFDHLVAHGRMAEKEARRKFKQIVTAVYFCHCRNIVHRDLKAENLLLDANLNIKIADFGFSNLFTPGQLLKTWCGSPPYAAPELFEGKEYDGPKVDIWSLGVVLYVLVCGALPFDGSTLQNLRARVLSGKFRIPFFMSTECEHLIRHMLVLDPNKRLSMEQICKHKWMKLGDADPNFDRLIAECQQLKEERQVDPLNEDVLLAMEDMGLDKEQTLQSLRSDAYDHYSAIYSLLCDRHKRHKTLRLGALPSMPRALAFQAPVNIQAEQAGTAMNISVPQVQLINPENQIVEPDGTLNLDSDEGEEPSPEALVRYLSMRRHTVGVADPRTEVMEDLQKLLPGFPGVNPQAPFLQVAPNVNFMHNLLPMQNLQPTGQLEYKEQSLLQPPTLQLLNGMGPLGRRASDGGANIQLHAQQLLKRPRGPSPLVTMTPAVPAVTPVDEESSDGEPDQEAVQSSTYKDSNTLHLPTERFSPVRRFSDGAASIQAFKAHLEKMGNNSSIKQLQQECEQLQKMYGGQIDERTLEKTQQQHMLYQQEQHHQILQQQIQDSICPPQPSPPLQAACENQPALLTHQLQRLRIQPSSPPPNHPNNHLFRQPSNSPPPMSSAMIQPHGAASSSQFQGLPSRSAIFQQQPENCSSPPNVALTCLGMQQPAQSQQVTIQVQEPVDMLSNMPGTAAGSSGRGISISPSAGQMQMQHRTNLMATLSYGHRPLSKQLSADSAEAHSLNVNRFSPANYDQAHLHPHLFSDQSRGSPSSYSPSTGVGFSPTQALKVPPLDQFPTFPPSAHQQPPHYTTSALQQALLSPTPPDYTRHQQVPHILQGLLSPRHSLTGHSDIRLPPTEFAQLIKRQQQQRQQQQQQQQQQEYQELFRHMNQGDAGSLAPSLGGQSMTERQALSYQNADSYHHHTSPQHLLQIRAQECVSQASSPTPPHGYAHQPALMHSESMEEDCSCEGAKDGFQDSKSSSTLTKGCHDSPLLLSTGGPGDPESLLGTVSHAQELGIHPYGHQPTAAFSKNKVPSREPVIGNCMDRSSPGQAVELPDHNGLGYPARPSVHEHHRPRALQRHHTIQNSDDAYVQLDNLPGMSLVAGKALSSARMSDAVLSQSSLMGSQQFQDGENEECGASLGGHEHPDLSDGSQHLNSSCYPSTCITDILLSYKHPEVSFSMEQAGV
T1 sequence (Q08881 whole entry): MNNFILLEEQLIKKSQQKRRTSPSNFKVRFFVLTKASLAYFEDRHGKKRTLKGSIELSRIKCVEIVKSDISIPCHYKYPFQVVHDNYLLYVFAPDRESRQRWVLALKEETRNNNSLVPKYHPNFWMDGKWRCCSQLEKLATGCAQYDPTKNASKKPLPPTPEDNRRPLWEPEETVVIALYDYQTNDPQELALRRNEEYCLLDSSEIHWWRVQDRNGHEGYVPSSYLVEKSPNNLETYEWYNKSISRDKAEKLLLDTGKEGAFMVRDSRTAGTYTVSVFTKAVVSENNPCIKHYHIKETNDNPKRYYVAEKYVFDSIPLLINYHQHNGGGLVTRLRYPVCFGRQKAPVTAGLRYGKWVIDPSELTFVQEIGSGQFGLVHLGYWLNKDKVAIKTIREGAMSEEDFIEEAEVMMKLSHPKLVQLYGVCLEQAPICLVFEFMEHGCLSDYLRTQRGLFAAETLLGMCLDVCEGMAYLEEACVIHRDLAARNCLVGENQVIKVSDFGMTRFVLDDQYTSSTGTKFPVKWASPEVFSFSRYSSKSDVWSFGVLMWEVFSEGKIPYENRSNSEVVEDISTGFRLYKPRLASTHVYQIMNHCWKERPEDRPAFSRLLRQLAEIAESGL
T5 sequence (O14757 whole entry): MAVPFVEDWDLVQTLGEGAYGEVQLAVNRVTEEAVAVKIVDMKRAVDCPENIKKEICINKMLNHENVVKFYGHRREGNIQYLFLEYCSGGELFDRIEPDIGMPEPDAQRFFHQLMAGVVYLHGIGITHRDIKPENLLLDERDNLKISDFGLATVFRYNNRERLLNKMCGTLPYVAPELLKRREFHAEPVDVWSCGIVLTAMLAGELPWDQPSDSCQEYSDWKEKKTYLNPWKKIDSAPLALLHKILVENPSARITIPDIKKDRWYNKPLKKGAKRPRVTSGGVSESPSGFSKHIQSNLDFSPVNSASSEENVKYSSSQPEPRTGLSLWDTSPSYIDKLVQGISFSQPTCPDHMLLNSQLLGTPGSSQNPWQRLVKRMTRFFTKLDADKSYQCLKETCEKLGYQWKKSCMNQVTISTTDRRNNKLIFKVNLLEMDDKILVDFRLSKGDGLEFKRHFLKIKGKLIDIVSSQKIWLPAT

CC(=O)Nc1nc2ccc(-c3cnc(Cl)c(NC(=O)Cc4ccccc4)c3)cc2s1 [PK6, N-(5-(2-acetamidobenzo[d]thiazol-6-yl)-2-chloropyridin-3-yl)-2-phenylacetamide]
EC50 [1]: ~0.95 µM
EC50 (U937 cells): ~1.33 µM

CC(=O)Nc1nc2ccc(-c3cnc(C)c(NC(=O)OC4CCCCC4)c3)cc2s1 [PK68, cyclohexyl (5-(2-acetamidobenzo[d]thiazol-6-yl)-2-methylpyridin-3-yl)carbamate]
clearance ([2]; iv, 2 mg/kg, IV (Bolus)): 21 mL/min/kg
Vd ([2]; iv, 2 mg/kg, IV (Bolus), read-out: Vss): 1 L/kg
AUC(0-inf) ([2]; 2 mg/kg, IV (Bolus)): 1590 ng·h/mL
MRT ([2]; 2 mg/kg, IV (Bolus)): 0.8 h
half-life ([2]; 2 mg/kg, IV (Bolus)): 1 h
AUC(0-t) ([2]; 2 mg/kg, IV (Bolus)): 1590 ng·h/mL
AUC(0-inf) ([2]; 10 mg/kg, PO (Gavage)): 4900 ng·h/mL
MRT ([2]; 10 mg/kg, PO (Gavage)): 1.8 h
half-life ([2]; 10 mg/kg, PO (Gavage)): 1.3 h
AUC(0-t) ([2]; 10 mg/kg, PO (Gavage)): 4820 ng·h/mL
bioavailability ([2]; 10 mg/kg, PO (Gavage), read-out: F(%) oral bioavailability): 61%
Cmax ([2]; po, orally 10 mg/kg, read-out: plasma concentration translated from Cmax): ~4 µM
Tmax ([2]; PO (Gavage), 10 mg/kg): 0.5 h
Cmax ([2]; PO (Gavage), 10 mg/kg, read-out: Cmax): 2420 ng/mL
Activity% (ITK; 1 μM): 88.47%
activity at 1 µM (ITK): 88.6%
Activity% (MEK5; 1 μM): 97.06%
activity at 1 µM (MEK5): 97.5%
Activity% (PKCepsilon; 1 μM): 98.93%
activity at 1 µM (PKCepsilon): 99.5%
Activity% (MKK4; 1 μM): 98.91%
activity at 1 µM (MKK4): 99.1%
Activity% (CHK1; 1 μM): 87.21%
activity at 1 µM (CHK1): 87.3%
Activity% (PYK2; 1 μM): 95.64%
activity at 1 µM (PYK2): 95.9%
Activity% (SIK3; 1 μM): 94.84%
activity at 1 µM (SIK3): 99.4%
Activity% (CDK2/cyclin E; 1 μM): 91.99%
activity at 1 µM (CDK2/cyclin E): 93.5%
Activity% (ERBB2/HER2; 1 μM): 97.32%
activity at 1 µM (ERBB2/HER2): 99.1%
Activity% (YES/YES1; 1 μM): 87.91%
activity at 1 µM (YES/YES1): 89.2%
Activity% (IRAK1; 1 μM): 90.54%
activity at 1 µM (IRAK1): 92.5%
Activity% (STK39/STLK3; 1 μM): 92.54%
activity at 1 µM (STK39/STLK3): 95.8%
IC50 (TRKA): ~10 µM
IC50 (TNIK): ~10 µM
